Consider one compound from article PMC11246312, “Anthracene detoxification by Laccases from indigenous fungal strains Trichoderma lixii FLU1 and Talaromyces pinophilus FLU12” (Biodegradation, 2024).

Structures are written as SMILES.

Experiment [1] concerns T1, TpFLU12L.
T1 construct: native secreted enzyme purified from anthracene-induced culture (ammonium sulfate, DEAE, Sephadex G-100); blue laccase
The experiment can be described thus: residual anthracene by UV absorbance at […] nm after ethyl acetate extraction; Michaelis-Menten fit. Particulars: no mediator; anthracene 50-400 mg/L, Na-acetate 50 mM pH 5, Tween 80 1%, 30 °C, laccase 3 U, 96 h. In kind it is biochemical, Talaromyces pinophilus.

The test system of experiment [2] is T2, TlFLU1L.
T2 construct: native secreted enzyme purified from anthracene-induced culture (ammonium sulfate, DEAE, Sephadex G-100); yellow laccase; 44 kDa by SDS-PAGE
The description is as above. In kind it is biochemical, Trichoderma lixii. Particulars: no mediator; anthracene 50-400 mg/L, Na-acetate 50 mM pH 5, Tween 80 1%, 30 °C, laccase 3 U, 96 h.

Take `c1ccc2cc3ccccc3cc2c1` [anthracene]: the “Km (mg/L) / TpFLU12” value in experiment [1] was 73.3 ± 0.07 mg/L. For the same compound, the “Km (mg/L) / TlFLU1” value in experiment [2] amounted to 173.2 ± 0.06 mg/L.
